Data taken from patent US5856517A, “Substituted pyrroles” (Hoffmann-La Roche Inc., priority 1997, dated 1999).

Experiments:
[1] = test system: epithelial breast carcinoma cell line MDAMB-435; assay: Antiproliferative activity, growth of MDAMB-435 cells (MTT); type: cell-based; settings: Homo sapiens, MDA-MB-435, 120 h, MDAMB435, day 5 post-drug addition, 0.1% DMSO, * = average of two separate experiments
Procedure: (§1) The epithelial breast carcinoma cell line, MDAMB-435, and the colon carcinoma cell line, SW480, were purchased from ATCC (American Type Cell Culture Collection) and were grown in culture in medium as recommended by ATCC. For analysis of the effect of various compounds on growth of these cells, the cells were plated at a concentration of 1500 cells/well in a 96 well tissue culture plate ("test plate"). The day after the cells were plated, the compounds to be analyzed were dissolved in 100% DMSO (dimethyl sulfoxide) to yield at 10 mM stock solution. Each compound was diluted in H2 O to 1 mM and was added to triplicate wells in the first row of a 96 well master plate which contains medium to yield a final concentration of 40 μM. The compounds were then serially diluted in medium in the "master plate". The diluted compound(s) were then transferred to test plates containing cells. A row of vehicle "control cells" received DMSO. The final concentration of DMSO in each well was 0.1%. At day 5 post-drug addition, the plates containing MDA-MB435 cells were analyzed as follows. Plates containing SW480 cells were analyzed at day 7 post drug addition as follows.
(§2) MTT (3-(4-5methylthiazole-2-yl)-2,5-diphenyl tetrazolium bromide; thiazolyl blue) was added to each well to yield a final concentration of 1 mg/ml. The plate was then incubated at 37° C. for 21/2-3 hours. The MTT containing medium was then removed and 50 μl of 100% ethanol was added to each well to dissolve the formazan. The absorbences were then read using an automated plate reader (Bio-tek microplate reader). IC50 's were calculated using the Reed and Munsch equation, see Am. J. Hygiene Vol. 27 pgs. 493-497, 1938.

[2] = test system: colon carcinoma cell line SW480; assay: Antiproliferative activity, growth of SW480 cells (MTT); type: cell-based; settings: Homo sapiens, 168 h, day 7 post drug addition, 0.1% DMSO, * = average of two separate experiments
Procedure: as §1, §2

| Structure (SMILES) | IC50 [1] | IC50 [2] |
| --- | --- | --- |
| Cn1cc(C2=C(c3cn(C)c4cc(CO)ccc34)C(=O)NC2=O)c2ccccc21 [Ex 5, 3-(6-hydroxymethyl-1-methyl-1H-indol-3-yl)-4-(1-methyl-1H-indol-3-yl)pyrrole-2,5-dione] | 0.42 µM | 0.35 µM |
| COC(=O)c1ccc2c(C3=C(c4cn(C)c5ccccc45)C(=O)NC3=O)cn(C)c2c1 [Ex 4a, 1-methyl-3-[4-(1-methyl-1H-indol-3-yl)-2,5-dioxo-2,5-dihydro-1H-pyrrol-3-yl]-1H-indole-6-carboxylic acid methyl ester] | 0.01 µM | 0.01 µM |
| Cn1cc(C2=C(c3cn(C)c4cc(C=O)ccc34)C(=O)NC2=O)c2ccccc21 [Ex 4b, 1-methyl-3-[4-(1-methyl-1H-indol-3-yl)-2,5-dioxo-2,5-dihydro-1H-pyrrol-3-yl]-1H-indole-6-carboxaldehyde] | 0.032 µM | 0.054 µM |
| COCc1ccc2c(C3=C(c4cn(C)c5ccccc45)C(=O)NC3=O)cn(C)c2c1 [Ex 4c, 3-(6-Methoxymethyl-1-methyl-1H-indol-3-yl)-4-(1-methyl-1H-indol-3-yl)-pyrrole-2,5-dione] | 0.07 µM | 0.11 µM |
| Cn1cc(C2=C(c3cn(C)c4cc(C#N)ccc34)C(=O)NC2=O)c2ccccc21 [Ex 1, 1-methyl-3-[4-(1-methyl-1H-indol-3-yl)-2,5-dioxo-2,5-dihydro-1H-pyrrol-3-yl]-1H-indole-6-carbonitrile] | 0.03 µM | 0.008 µM |
| Cn1cc(C2=C(c3cn(C)c4cc(C(N)=O)ccc34)C(=O)NC2=O)c2ccccc21 [Ex 6, 1-Methyl-3-[4-(1-methyl-1H-indol-3-yl)-2,5-dioxo-2,5-dihydro-1H-pyrrol-3-yl]-1H-indole-6-carboxylic acid amide] | 0.7 µM |  |
| CC(=O)OCc1ccc2c(C3=C(c4cn(C)c5ccccc45)C(=O)NC3=O)cn(C)c2c1 [Ex 3, Acetic acid 1-methyl-3-[4-(1-methyl-1H-indol-3-yl)-2,5-dioxo-2,5-dihydro-1H-pyrrol-3-yl]-1H-indol-6-yl methyl ester] | 0.3 µM | 0.83 µM |
